Data taken from patent US20060142239A1, “Potassium or sodium salt of (-)-2-(4-hydroxyphenyl)ethyl!-thio-3-'4-{4-'(methzlsulfonzl)oxy !phenoxy}phenyl!propanoic acid and their use in medicine” (priority 2003, published 2006).

What was measured:
SC LS-174T tumours = experiment: Human LS-174T colon tumour xenografts in Nude mice, tumour growth delay; assay type: in vivo; conditions: ZD6126 200 mg/kg IP, 5-FU 75 mg/kg IV, CPT-11 25 mg/kg IV; for MEDIAN TIME TO REACH TUMOUR SIZE OF 2 CM^3: SC LS-174T xenografts in Nude mice, weekly x3 (Days 1, 8, 15), in combinations ZD6126 2 hours after the other agent; for T - C (DAYS), tumour growth delay: difference in median time to reach 2 cm^3, treatment vs vehicle control, weekly x3
Protocol: Human LS-174T Colon Tumour Xenografts in Nude Mice […] Mice were randomised into 6 groups of 15-18 mice per group. Group 1—control Group 2—received 3 weekly intraperitoneal (IP) injections of ZD6126 at 200 mg/kg on Days 1, 8 and 15 Group 3—received 3 weekly intravenous (IV) injections of 5-FU at 75 mg/kg on Days 1, 8 and 15 Group 4—received 3 weekly IV injections of CPT-11 alone at 25 mg/kg on Days 1, 8 and 15. Group 5—received 3 weekly IP injections of ZD6126 at 200 mg/kg on Days 1, 8 and 15 and 3 weekly IV injections of 5-FU at 75 mg/kg Days 1, 8 and 15. Group 6—received 3 weekly IP injections of ZD6126 at 200 mg/kg on Days 1, 8 and 15 and 3 weekly IV injections of CPT-11 at 25 mg/kg on Days 1, 8 and 15. In groups 5 and 6, when animals received both ZD6126 and CPT-11 or 5-FU on the same day, the ZD6126 was administered 2 hours after the CPT-11 or 5-FU. [table] For all animals, the tumour size was measured twice a week with calipers, and the tumour volume (mm^3) was estimated according to the formula: {[(Square root of Length×Width)×(Length×Width)]×0.5236}. The mice were sacrificed when tumours grew beyond 10% of bodyweight. Treatment efficacy was assessed in terms of the effects on the tumour volumes of treated mice relative to vehicle-treated mice and expressed as growth delay. Growth delay T-(C) was calculated as the difference in the median growth time of the treatment group (T) and the vehicle control group (C) to reach a tumor size of 2 cm^3.

tumour vasculature = conditions: reported in Proc. Am. Assoc. Cancer Res. 2000; 41: 329; cited from earlier work

Row | SMILES | MEDIAN TIME TO REACH TUMOUR SIZE OF 2 CM^3 (SC LS-174T tumours) [days] | T - C (DAYS), tumour growth delay (SC LS-174T tumours) [days] | effect on tumour vasculature (tumour vasculature)
1 | O=c1[nH]cc(F)c(=O)[nH]1 [5-FU, 5-fluorouracil] | 14 | 5 | 
2 | CCc1c2c(nc3ccc(OC(=O)N4CCC(N5CCCCC5)CC4)cc13)-c1cc3c(c(=O)n1C2)COC(=O)[C@]3(O)CC [CPT-11, irinotecan] | 17 | 8 | 
3 | COc1cc2c(c(OC)c1OC)-c1ccc(OP(=O)(O)O)cc1[C@@H](NC(C)=O)CC2 [ZD6126, (5S)-5-(acetylamino)-9,10,11-trimethoxy-6,7-dihydro-5H-dibenzo[a,c]cyclohepten-3-yl dihydrogen phosphate] | 17 | 8 | selectively disrupts tumour vasculature leading to vessel occlusion and extensive tumour necrosis
